Source: patent US10745370B2, “Farnesyl transferase inhibitors and uses thereof” (MACKAY MEMORIAL HOSPITAL, priority 2016, dated 2020)
“Also recorded” adds a separate entry of the source.

What was measured:
macrophages [1] = assay: Phagocytosis assay with fluorescent latex beads; type: cell-based, human; conditions: M1 and/or M2 populations, FIG. 6
Experimental: (§1) As to the effects of the present compound on macrophages, the CD14^+ cells were cultivated and treated as indicated above except the addition of cytokine cocktail on day 6. The macrophages were collected on day 6 and subjected to further assays, including viability assay, trypan blue exclusion test, morphology observation, cell marker staining, and phagocytotic activity analysis.
The phagocytic activity of macrophages was measured by using flow cytometric analysis. The green fluorescent latex beads (carboxylate-modified beads with diameter 2 μm) were suspended in PBS solution and added into macrophage culture for 2 hours with vortexa at 37° C. The macrophages were subjected to flow cytometry for measurement of fluorescent intensity

dendritic cells = assay: Trypan blue exclusion analysis of dendritic cells; type: cell-based, human; conditions: 10 μM, seven days, FIG. 7
Experimental: (§2) Mononuclear cells (MNCs) were separated from the peripheral blood of healthy donors obtained with written consent by use of Ficoll-Hypaque density centrifugation, followed by positive selection with magnetic anti-CD14 microbeads.
(§3) The isolated CD14^+ cells were cultivated in Minimum Essential Medium (MEM medium) supplemented with 10% fetal bovine serum (FBS), 100 ng/ml granulocyte-macrophage colony-stimulating factor (GM-CSF, Gentaur), and 50 ng/ml interleukin-4 (IL-4, R&D), and kept in an environment of 37° C. with 5% CO2/95% air.
(§4) To evaluate the effects of the present compound on dendritic cells, the CD14^+ cells were respectively treated with 10 μM of test compound (i.e., Mib-5, Mib-6, Mib-7, Mib-8, Mib-9, and Mib-10) on day 1. Then, on day 3, the cultured medium in each well was replenished by adding half the volume of the cultured medium containing the same treatment as indicated above. Then, on day 6, a cytokine cocktail containing IL-1, IL-6, and tumor necrosis factor-α (TNF-α) was added to induce maturation. On day 7, the differentiated dendritic cells were collected and subjected to further assays, including viability assay, morphology observation, and cell marker staining.
(§5) The dye exclusion test is used to determine the number of viable cells present in a cell suspension. […] In this test, the cells were first treated with a test compound (i.e., Mib-5, 6, 7, 8, 9 or 10) for a certain period of time (e.g., 72 hours), then the cells were harvested and re-suspended in suitable buffer solution. The cell suspension was then mixed with trypan blue dye and then visually examined to determine whether cells had taken up or excluded the dye. A viable cell will have a clear cytoplasm, whereas a nonviable cell will have a blue cytoplasm. The concentration required to reduce viability by 50% (IC50) after 72 hours was extrapolated from the dose-response curves by different concentrations of the test compound using a second-order polynomial regression model and analyzing with SigmaPlot Software (Systat Software Inc., San Jose, Calif.).
In this example, the effects of the present compounds on dendritic cells were investigated. Briefly, the dendritic cells were respectively treated with 10 μM of Mib-5, Mib-6, Mib-7, Mib-8, or Mib-10. Seven days later, the cells were harvested and subjected to analysis of morphology observation, cell viability, and/or cell marker expression.

macrophages [2] = assay: Trypan blue exclusion test on macrophages; type: cell-based; conditions: trypan blue analysis, FIG. 2
Experimental: as §2, §3, §4, §1, §5

M2 macrophages = assay: Differentiation analysis, cell viability of M2 macrophages; type: cell-based, human; conditions: for Cell viability of M2 macrophages: IL-4-induced M2 differentiation, 6 days, control 100%
Experimental: (§6) M1 differentiation of freshly isolated CD14^+ cells was induced by the addition of lipopolysaccharide (LPS), while M2 differentiation of freshly isolated CD14^+ cells was induced by the addition of IL-4. Then, the present compounds (e.g., Mib-5, 6, 7, 8, 9, or 10) were added at the indicated dosages. 6 days later, the population of the differentiated macrophages were then determined by cell viability analysis. The cell viability was measured by cell counting kit-8 (CCK-8, Sigma). The half maximal inhibitory concentrations (IC50) of the test compounds on macrophages or dendritic cells were calculated.

M1 macrophages [3] = assay: Cell marker expression on M1 macrophages, flow cytometry; type: cell-based, human; conditions: for CD14: M1 population after treatment: Table 5; for CD80: change in M1 population: Table 6; for CD206: change in M1: Table 7; for CD206 expression on M1 macrophages: control 14.27%; for CD80 expression on M1 macrophages: control 71.34%; for CD14 expression on M1 macrophages: control 99.83%
Experimental: as §6, with “analysis.” for “analysis. The cell viability was measured by cell counting kit-8 (CCK-8, Sigma). The half maximal inhibitory concentrations (IC50) of the test compounds on macrophages or dendritic cells were calculated.”
The expression of various types of cell markers, such as CD14, CD206, and CD80 expressed on the surface of macrophages, and CD1a, CD14, CD83, and HLA-DR expressed on the dendritic cells, were respectively detected by fluorescein isothiocyanate (FITC) and phycoerythrin (PE)-conjugated monoclonal antibodies in FACS caliber flowcytometer. Monoclonal antibodies used in this examples included anti-CD14 (IgG-FITC), anti-CD206 (IgG-FITC), anti-CD80-PE, anti-CD1a-PE, anti-CD83-PE and anti-human leukocyte antigen (HLA)-DR-PE. Results were analyzed by CellQuest software.

M1 macrophages [4] = assay: Differentiation analysis, cell viability of M1 macrophages; type: cell-based, human; conditions: for Cell viability of M1 macrophages: LPS-induced M1 differentiation, 6 days, control 100%; for change in M1 population of macrophages compared with control: Table 4
Experimental: as §6

macrophages [5] = assay: Morphology of macrophages (photographs, Liu's staining); type: cell-based, human; conditions: for morphology and adhesion of treated macrophages: 10 μM, FIG. 1 panel B; for morphology of cells by Liu's staining compared with control cells: FIG. 1 panel C
Experimental: as §2, §3, §4, §1
Cells were transferred to a glass coverslide and covered with solution A (0.5 g of methylene blue and 1.7 g of Eosin yellow dissolved in 1,000 ml of ethanol). After 45 seconds, solution B (1.3 g of azure, 1.4 g of methylene blue, 23.38 g of Na2HPO4, 6.5 g of KH2PO4, dissolved in 1,000 ml of distilled water) was added in the proportion of 2 parts of B to 1 part of A. Mixed the solutions well by blowing the surface. The slide was left standing for 90 seconds and then washed off the staining solution rapidly by running water. The morphology of stained cells was then examined under microscope.

Structure (SMILES)	phagocytic activity compared with control (macrophages [1])	levels of viable dendritic cells (dendritic cells)	cell viability / cytotoxicity toward macrophages (macrophages [2])	Cell viability of M2 macrophages (M2 macrophages) [%]	increase of M2 population (M2 macrophages; compared with control, Table 4)	CD14: M1 population after treatment (M1 macrophages [3])	CD80: change in M1 population (M1 macrophages [3])	CD206: change in M1 (M1 macrophages [3])	CD206 expression on M1 macrophages (M1 macrophages [3]) [%]	CD80 expression on M1 macrophages (M1 macrophages [3]) [%]	CD14 expression on M1 macrophages (M1 macrophages [3]) [%]	Cell viability of M1 macrophages (M1 macrophages [4]) [%]	change in M1 population of macrophages compared with control (M1 macrophages [4])	morphology and adhesion of treated macrophages (macrophages [5])	morphology of cells by Liu's staining compared with control cells (macrophages [5])	change in M2 population of macrophages compared with control (M2 macrophages; Table 4)
COC1=CC(=O)[C@@]2(c3cc(=O)c4c(O)cc(O)cc4o3)[C@H](C[C@]3(C)[C@@H](C(=O)O)CC=C4[C@H]3CCCC4(C)C)C(C)=CC[C@H]2C1=O [Mib-7]	reduced	reduced	did not adversely affect cell viability; also recorded: no significant cytotoxicity	136.4	about 40%	remained relatively unchanged	reduction	significant decrease	4.9	23.04	98.66	82.5	decrease	became rounded up, and were less adhesive	not significantly affected	
COC1=CC(=O)[C@@]2(c3cc(=O)c4ccc(OC)cc4o3)[C@H](C[C@]3(C)[C@@H](C(=O)O)CC=C4[C@H]3CCCC4(C)C)C(C)=CC[C@H]2C1=O [Mib-5]	reduced	reduced	did not adversely affect cell viability; also recorded: no significant cytotoxicity	86.4		remained relatively unchanged	reduction	significant decrease	5.41	11.94	97.03	63.5	significant reduction	became rounded up, and were less adhesive	not significantly affected	slight decrease
